Legend:
[1] = Cytotoxicity against human HeLa cells assessed as reduction in cell viability after 48 hrs by MTT assay; assay type: functional, cell-based
[2] = (§1) Cytotoxicity against human DU145 cells assessed as reduction in cell viability after 48 hrs by MTT assay; assay type: functional, cell-based; conditions: DU-145, 48 h
DU-145 [3] = test: as §1; assay type: functional, cell-based
[4] = Cytotoxicity against human IOSE-144 cells assessed as reduction in cell viability after 48 hrs by MTT assay; assay type: toxicity, cell-based
[5] = Cytotoxicity against human DU145 cells assessed as viable cells at 30 uM after 48 hrs by MTT assay; assay type: functional; conditions: DU-145, 48 h, read-out: GI
[6] = Cytotoxicity against human HeLa cells assessed as cell growth inhibition at 30 uM after 48 hrs by MTT assay; assay type: functional; conditions: read-out: GI
DU-145 [7] = test: Potency index, ratio of 5-FU IC50 to compound IC50 for human DU145 cells; assay type: functional

| Compound | IC50 [1] | IC50 [2] | growth inhibition (GI) (DU-145 [3]) | IC50 at 48 h [4] | inhibition of growth at 30 µM [5] | inhibition of growth at 30 µM [6] | Ratio IC50 (DU-145 [7]) |
| --- | --- | --- | --- | --- | --- | --- | --- |
| CO[C@H]1CC[C@]2(C)[C@H]3C[C@@H](O)[C@@H]4[C@@H]([C@@](C)(CCCC(C)(C)O)OC)CC[C@@]4(C)[C@]3(C)CC[C@H]2C1(C)C | 6.7 µM | 5.6 µM | Dose-dependent effect | > 100 µM | 32.5% | 32.5% | – |
| COC(=O)O[C@H]1CC[C@]2(C)[C@H]3C[C@@H](O)[C@@H]4[C@@H]([C@@](C)(CCC=C(C)C)OC)CC[C@@]4(C)[C@]3(C)CC[C@H]2C1(C)C | 30.2 µM | 41.1 µM | Dose-dependent effect | > 100 µM | – | – | – |
| COC(=O)O[C@H]1CC[C@]2(C)[C@H]3C[C@@H](OC(=O)OC)[C@@H]4[C@@H](/C(C)=C/CCC(C)(C)OC(=O)OC)CC[C@@]4(C)[C@]3(C)CC[C@H]2C1(C)C | > 100 µM | 80.3 µM | Dose-dependent effect | > 100 µM | – | – | – |
| COC(=O)O[C@H]1CC[C@]2(C)[C@H]3C[C@@H](O)[C@@H]4[C@@H]([C@](C)(O)CCCC(C)(C)O)CC[C@@]4(C)[C@]3(C)CC[C@H]2C1(C)C | 59.9 µM | 87.1 µM | Dose-dependent effect | > 100 µM | – | – | – |
| CO[C@H]1CC[C@]2(C)[C@H]3C[C@@H](OC)[C@@H]4[C@@H](/C(C)=C/CCC(C)(C)O)CC[C@@]4(C)[C@]3(C)CC[C@H]2C1(C)C | 1.2 µM | 12.1 µM | Dose-dependent effect | > 100 µM | – | – | – |
| COC(=O)O[C@H]1CC[C@]2(C)[C@H]3C[C@@H](O)[C@@H]4[C@@H]([C@@](C)(CCCC(C)(C)OC(=O)OC)OC)CC[C@@]4(C)[C@]3(C)CC[C@H]2C1(C)C | 38.2 µM | 32.6 µM | Dose-dependent effect | > 100 µM | – | – | – |
| COC(=O)O[C@H]1CC[C@]2(C)[C@H]3C[C@@H](O)[C@@H]4[C@@H]([C@@](C)(CCCC(C)(C)O)OC)CC[C@@]4(C)[C@]3(C)CC[C@H]2C1(C)C | 7.1 µM | 3.9 µM | Dose-dependent effect | > 100 µM | 18.6% | 18.6% | – |
| O=c1[nH]cc(F)c(=O)[nH]1 [FLUOROURACIL] | 28.2 µM | 26.1 µM | – | 36.1 µM | – | – | – |
| CO[C@H]1CC[C@]2(C)[C@H]3C[C@@H](OC)[C@@H]4[C@@H]([C@@](C)(CCCC(C)(C)OC)OC)CC[C@@]4(C)[C@]3(C)CC[C@H]2C1(C)C | 21.8 µM | 18.7 µM | Dose-dependent effect | > 100 µM | – | – | – |
| COC(=O)OC(C)(C)CCC[C@@](C)(O)[C@H]1CC[C@]2(C)[C@@H]1[C@H](O)C[C@@H]1[C@@]3(C)CC[C@H](O)C(C)(C)[C@@H]3CC[C@]12C | 26.9 µM | 27.2 µM | Dose-dependent effect | > 100 µM | – | – | – |
| COC(=O)O[C@H]1CC[C@]2(C)[C@H]3C[C@@H](O)[C@@H]4[C@@H]([C@](C)(O)CCC=C(C)C)CC[C@@]4(C)[C@]3(C)CC[C@H]2C1(C)C | 10.4 µM | 1.2 µM | Dose-dependent effect | > 100 µM | 38.4% | 38.4% | 20 - 22 |
| COC(C)(C)CC/C=C(\C)[C@H]1CC[C@]2(C)[C@@H]1[C@H](O)C[C@@H]1[C@@]3(C)CC[C@H](O)C(C)(C)[C@@H]3CC[C@]12C | 1.3 µM | 3.2 µM | Dose-dependent effect | > 100 µM | 20.4% | 20.4% | – |
| CO[C@](C)(CCC=C(C)C)[C@H]1CC[C@]2(C)[C@@H]1[C@H](O)C[C@@H]1[C@@]3(C)CC[C@H](O)C(C)(C)[C@@H]3CC[C@]12C | 1.1 µM | 2.6 µM | Dose-dependent effect | > 100 µM | 20.6% | 20.6% | 20 - 22 |
| COC(=O)O[C@H]1CC[C@]2(C)[C@H]3C[C@@H](O)[C@@H]4[C@@H]([C@](C)(O)CCCC(C)(C)OC(=O)OC)CC[C@@]4(C)[C@]3(C)CC[C@H]2C1(C)C | 34.6 µM | 29.2 µM | Dose-dependent effect | > 100 µM | – | – | – |
| COC(C)(C)CCC[C@@](C)(O)[C@H]1CC[C@]2(C)[C@@H]1[C@H](O)C[C@@H]1[C@@]3(C)CC[C@H](O)C(C)(C)[C@@H]3CC[C@]12C | 22.5 µM | 5.4 µM | – | > 100 µM | – | – | – |
| CC(C)(O)CCC[C@@](C)(O)[C@H]1CC[C@]2(C)[C@@H]1[C@H](O)C[C@@H]1[C@@]3(C)CC[C@H](O)C(C)(C)[C@@H]3CC[C@]12C | 46.4 µM | 57.9 µM | – | > 100 µM | – | – | – |
| COC(=O)O[C@H]1CC[C@]2(C)[C@H]3C[C@@H](O)[C@@H]4[C@@H](/C(C)=C/CCC(C)(C)O)CC[C@@]4(C)[C@]3(C)CC[C@H]2C1(C)C | 15.9 µM | 10.9 µM | Dose-dependent effect | > 100 µM | 19.7% | 19.7% | – |
